Test systems include K-562 leukemia; LOX IMVI melanoma; ACHN renal; DU-145 prostate; SNB-75 CNS; SK-MEL-2 melanoma; SF-539 CNS; SK-MEL-28 melanoma; SW-620 colon; CCRF-CEM leukemia.
Common to all, as to test: NCI-60 cell line screen, 48 h

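Five concentrations, 48 hours, 96-well plates. GI50: concentration for 50% inhibition of growth. TGI is the concentration that stops growth completely.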

Regarding `Cc1ccc2sc3c(NCCCN)nc4ccccc4c3c(=O)c2c1`, the GI50 is 2 µM with K-562 leukemia; 1.66 µM in the assay with LOX IMVI melanoma; 1.71 µM in the assay with ACHN renal; 1.87 µM in the assay with DU-145 prostate; 1.64 µM in the assay with SNB-75 CNS; 2.18 µM with SK-MEL-2 melanoma. Moreover, the GI50 with SF-539 CNS is 1.76 µM; in the assay on SK-MEL-28 melanoma it was 1.78 µM; with SW-620 colon, 1.79 µM; in the assay with CCRF-CEM leukemia, 2.32 µM. Moreover, the TGI in the assay on K-562 leukemia was 4.51 µM; with LOX IMVI melanoma, 3.08 µM; in the assay with ACHN renal, 3.09 µM; with DU-145 prostate it was 3.39 µM; in the assay with SNB-75 CNS, 3.56 µM; in the assay with SK-MEL-2 melanoma it was 4.66 µM. Also, the TGI turned out to be 3.21 µM in the assay on SF-539 CNS, 3.28 µM in the assay on SK-MEL-28 melanoma, 3.54 µM with SW-620 colon and 5.61 µM in the assay on CCRF-CEM leukemia.

Turning to `CC1(C)C2CC3C(C)(C2)C31c1cc(Cl)ccc1N` (stereo not given), the TGI with K-562 leukemia came to 23.5 µM; in the assay on LOX IMVI melanoma it was 30.5 µM; in the assay with ACHN renal, 29 µM; with DU-145 prostate it was 27 µM; in the assay on SNB-75 CNS, 24.3 µM; in the assay on SK-MEL-2 melanoma it was 29.4 µM. Also, the TGI came out at 32 µM in the assay with SF-539 CNS, 31.3 µM with SK-MEL-28 melanoma, 28.2 µM with SW-620 colon and 33.4 µM with CCRF-CEM leukemia.

For `COc1cc2nc(-c3cccs3)nc(Nc3ccccc3C(=O)NN)c2cc1OC`, the TGI in the assay on K-562 leukemia, in the assay on LOX IMVI melanoma, in the assay with ACHN renal, in the assay on DU-145 prostate, with SNB-75 CNS and with SK-MEL-2 melanoma was more than 100 µM each time. Besides, the TGI in the assay with SF-539 CNS, in the assay on SK-MEL-28 melanoma, in the assay with SW-620 colon and with CCRF-CEM leukemia was more than 100 µM throughout.

For `N=C1C=CC(=C(c2ccc(N)cc2)c2ccc(N)cc2)C=C1`, the TGI was 27.1 µM in the assay on K-562 leukemia; 15.4 µM in the assay on LOX IMVI melanoma; 31.2 µM in the assay with ACHN renal; 17.7 µM with DU-145 prostate; 11.5 µM with SNB-75 CNS; 10.4 µM in the assay on SK-MEL-2 melanoma. For the same molecule, the TGI was found to be 13.1 µM in the assay on SF-539 CNS, 26.1 µM in the assay on SK-MEL-28 melanoma, 19.2 µM in the assay with SW-620 colon and 19.5 µM in the assay with CCRF-CEM leukemia.

Turning to `CC1(C)CC(=O)c2c(N)n[nH]c2C1`, the TGI with K-562 leukemia, in the assay on LOX IMVI melanoma, in the assay with ACHN renal, with DU-145 prostate, with SNB-75 CNS and with SK-MEL-2 melanoma was more than 100 µM in each case. The TGI with SF-539 CNS, with SK-MEL-28 melanoma, with SW-620 colon and in the assay on CCRF-CEM leukemia was more than 100 µM each time.

Consider `O=C(O)C(Cc1ccccc1)Cc1ccccc1`, for which the TGI with K-562 leukemia, in the assay with LOX IMVI melanoma, with ACHN renal, with DU-145 prostate, with SNB-75 CNS and with SK-MEL-2 melanoma was more than 100 µM in each case. Moreover, the TGI with SF-539 CNS, in the assay on SK-MEL-28 melanoma, with SW-620 colon and with CCRF-CEM leukemia was more than 100 µM throughout.

`O/N=C1\C/C(=N\O)c2c(Br)sc(Br)c21`: the TGI with K-562 leukemia is more than 100 µM; in the assay on LOX IMVI melanoma, 45.2 µM; with ACHN renal it was more than 100 µM; in the assay with DU-145 prostate, more than 100 µM; with SNB-75 CNS, 51.3 µM; in the assay with SK-MEL-2 melanoma it was more than 100 µM. The TGI is more than 100 µM in the assay with SF-539 CNS, 63.2 µM with SK-MEL-28 melanoma, 72.7 µM in the assay on SW-620 colon and 37.3 µM in the assay with CCRF-CEM leukemia.

On to `c1ccc2c(c1)nnn2C1CCCCO1` (stereo not given), for which the TGI with K-562 leukemia, in the assay with LOX IMVI melanoma, with ACHN renal, in the assay with DU-145 prostate, in the assay on SNB-75 CNS and in the assay on SK-MEL-2 melanoma was more than 100 µM throughout. Further, the TGI in the assay on SF-539 CNS, in the assay on SK-MEL-28 melanoma, in the assay on SW-620 colon and with CCRF-CEM leukemia was more than 100 µM each time.

With `CCOC(=O)c1ccc2nc3n(c2c1)C(c1c(F)cccc1F)SC3` (stereo not given), the TGI in the assay with K-562 leukemia, in the assay on LOX IMVI melanoma, in the assay with ACHN renal, in the assay with DU-145 prostate, with SNB-75 CNS and in the assay on SK-MEL-2 melanoma was more than 100 µM in each case. For the same molecule, the TGI with SF-539 CNS, in the assay on SK-MEL-28 melanoma, in the assay on SW-620 colon and in the assay with CCRF-CEM leukemia was more than 100 µM throughout.

Take `O=C(CSc1nc2ccc(I)cc2c(=O)n1Cc1ccccc1)Nc1ccccc1`: the TGI was more than 100 µM in the assay on K-562 leukemia; more than 100 µM in the assay with LOX IMVI melanoma; more than 100 µM in the assay on ACHN renal; more than 100 µM with DU-145 prostate; 12.2 µM in the assay on SNB-75 CNS; 43.3 µM in the assay with SK-MEL-2 melanoma. Also, the TGI in the assay with SF-539 CNS is 10.6 µM; with SK-MEL-28 melanoma, more than 100 µM; in the assay with SW-620 colon it was more than 100 µM; in the assay with CCRF-CEM leukemia, more than 100 µM.

Consider `CCCCCCc1ccc(CCCCCCCC(=O)O)o1`, for which the TGI with K-562 leukemia is 71.6 µM; in the assay on LOX IMVI melanoma, more than 100 µM; in the assay on ACHN renal, more than 100 µM; with DU-145 prostate it was more than 100 µM; in the assay with SNB-75 CNS it was more than 100 µM; in the assay with SK-MEL-2 melanoma it was more than 100 µM. Also, the TGI in the assay on SF-539 CNS, in the assay with SK-MEL-28 melanoma, with SW-620 colon and in the assay on CCRF-CEM leukemia was more than 100 µM each time.

On to `C=CC(=O)N1C/C(=C\c2ccc(OC)cc2)C(=O)/C(=C/c2ccc(OC)cc2)C1`, for which the TGI was more than 100 µM in the assay on K-562 leukemia; 3.37 µM in the assay with LOX IMVI melanoma; 3.47 µM in the assay on ACHN renal; 23.1 µM in the assay on DU-145 prostate; 27.3 µM in the assay with SNB-75 CNS; 8.57 µM with SK-MEL-2 melanoma. Moreover, the TGI is 3.53 µM in the assay with SF-539 CNS, 10.8 µM with SK-MEL-28 melanoma, 8.02 µM in the assay on SW-620 colon and more than 25.7 µM in the assay with CCRF-CEM leukemia.

Take `Cc1nc(N)c(N2CCN(S(=O)(=O)N(Cc3ccccc3)Cc3ccccc3)CC2)c(=O)[nH]1`: the TGI is more than 100 µM with K-562 leukemia; more than 100 µM with LOX IMVI melanoma; 85.1 µM in the assay on ACHN renal; 52.7 µM in the assay on DU-145 prostate; 28.6 µM with SNB-75 CNS; more than 100 µM in the assay on SK-MEL-2 melanoma. Moreover, the TGI in the assay with SF-539 CNS is 80.6 µM; in the assay with SK-MEL-28 melanoma it was 34.1 µM; in the assay with SW-620 colon, more than 100 µM; in the assay on CCRF-CEM leukemia it was more than 100 µM.

For the molecule `C=C(C)C1(Sc2ccc(OC)cc2)CC1`, the TGI was more than 100 µM in the assay on K-562 leukemia; 33.4 µM in the assay on LOX IMVI melanoma; more than 100 µM in the assay with ACHN renal; more than 100 µM in the assay on DU-145 prostate; 78.5 µM in the assay with SNB-75 CNS; 56.5 µM with SK-MEL-2 melanoma. The TGI with SF-539 CNS, with SK-MEL-28 melanoma, in the assay on SW-620 colon and in the assay on CCRF-CEM leukemia was more than 100 µM in each case.

`CCC[N+](C)(C)CCCNC(=O)c1c(O)c2ccccc2[nH]c1=O`: the TGI with K-562 leukemia, in the assay on LOX IMVI melanoma, with ACHN renal, in the assay with DU-145 prostate, with SNB-75 CNS and in the assay with SK-MEL-2 melanoma was more than 100 µM throughout. Further, the TGI in the assay on SF-539 CNS, in the assay with SK-MEL-28 melanoma, in the assay on SW-620 colon and in the assay with CCRF-CEM leukemia was more than 100 µM throughout.

`C1=CC2C(C3CN(c4ccccc4)N=C13)C1C3C4C=CC21C=CC43` (stereo not given): the TGI with K-562 leukemia, with LOX IMVI melanoma, in the assay on ACHN renal, in the assay with DU-145 prostate, in the assay on SNB-75 CNS and in the assay on SK-MEL-2 melanoma was more than 100 µM each time. Besides, the TGI with SF-539 CNS, with SK-MEL-28 melanoma, in the assay on SW-620 colon and in the assay on CCRF-CEM leukemia was more than 100 µM in each case.

For `O=C1C(c2ccccc2)=C(c2ccccc2)C1(Cl)Cl`, the TGI in the assay on K-562 leukemia was determined as 4.13 µM; in the assay with LOX IMVI melanoma, 4.25 µM; in the assay with ACHN renal, 7.09 µM; with DU-145 prostate, 24.5 µM; with SNB-75 CNS, 16.6 µM; with SK-MEL-2 melanoma, 8.7 µM. For the same molecule, the TGI in the assay on SF-539 CNS amounted to 9.22 µM; with SK-MEL-28 melanoma, 10.9 µM; in the assay with SW-620 colon, 9.77 µM; in the assay on CCRF-CEM leukemia, 3.96 µM.

With `NC1(c2cc3ccccc3s2)CCCCCC1`, the TGI in the assay on K-562 leukemia came out at 28.1 µM; with LOX IMVI melanoma, 43 µM; in the assay on ACHN renal, 33.4 µM; in the assay with DU-145 prostate, 30.9 µM; in the assay on SNB-75 CNS, 23.2 µM; in the assay on SK-MEL-2 melanoma, 22.1 µM. Further, the TGI with SF-539 CNS is 32.8 µM; with SK-MEL-28 melanoma, 30.9 µM; with SW-620 colon, 31.1 µM; in the assay on CCRF-CEM leukemia, 35.4 µM.

On to `O=C(CCCCCNC(=O)c1ccc(Cl)cc1)NO`, for which the TGI in the assay with K-562 leukemia is more than 100 µM; with LOX IMVI melanoma, 17 µM; in the assay on ACHN renal, 41.6 µM; in the assay with DU-145 prostate, more than 100 µM; in the assay on SNB-75 CNS, 30.8 µM; in the assay with SK-MEL-2 melanoma, 7.22 µM. Moreover, the TGI in the assay on SF-539 CNS, in the assay on SK-MEL-28 melanoma, with SW-620 colon and in the assay with CCRF-CEM leukemia was more than 100 µM throughout.

As to `COC(=O)NC(Cc1ccccc1)NC(=O)OC(C)(C)C` (stereo not given), the TGI in the assay on K-562 leukemia, in the assay with LOX IMVI melanoma, with ACHN renal, in the assay with DU-145 prostate, with SNB-75 CNS and with SK-MEL-2 melanoma was more than 100 µM each time. Moreover, the TGI with SF-539 CNS, in the assay with SK-MEL-28 melanoma, in the assay on SW-620 colon and with CCRF-CEM leukemia was more than 100 µM each time.

These data come from PubChem BioAssay (NCI).
